The values below come from patent US11072608B2, “Pesticidally active heterocyclic derivatives with sulphur containing substituents” (SYNGENTA PARTICIPATIONS AG, priority 2014, dated 2021).

Data set [1] deals with Myzus persicae (green peach aphid). As to the kind of experiment: Example B5: activity against Myzus persicae, sunflower leaf disc spray. The format is in vivo. The settings on record: foliar, 144 h, application rate of 200 ppm, sunflower leaf discs, mixed ages, 6 days after infestation. The protocol: Example B5: Activity Against Myzus persicae (Green Peach Aphid)
Sunflower leaf discs were placed on agar in a 24-well microtiter plate and sprayed with aqueous test solutions prepared from 10,000 ppm DMSO stock solutions. After drying, the leaf discs were infested with an aphid population of mixed ages. The samples were assessed for mortality 6 days after infestation.

In data set [2] the test system is Frankliniella occidentalis (western flower thrips). Put plainly: Example B10: activity against Frankliniella occidentalis, sunflower leaf disc spray. The format is in vivo. To be noted: foliar, 168 h, application rate of 200 ppm, sunflower leaf discs, mixed ages, 7 days after infestation. As for the experimental part:
Example B10: Activity Against Frankliniella occidentalis (Western Flower Thrips)
Sunflower leaf discs were placed on agar in 24-well microtiter plates and sprayed with aqueous test solutions prepared from 10,000 DMSO stock solutions. After drying the leaf discs were infested with a Frankliniella population of mixed ages. The samples were assessed for mortality 7 days after infestation.

For data set [3], the system named is Plutella xylostella (diamond back moth). As to the kind of experiment: Example B3: activity against Plutella xylostella, artificial diet. To be noted: 120 h, application rate of 200 ppm, L2 larvae, 5 days after infestation, read-out: effect in at least one of the two categories (mortality or growth inhibition). The format is in vivo. As for the experimental part: Example B3: Activity Against Plutella xylostella (Diamond Back Moth)
24-well microtiter plates with artificial diet were treated with aqueous test solutions prepared from 10,000 ppm DMSO stock solutions by pipetting. After drying, the plates were infested with L2 larvae (10 to 15 per well). The samples were assessed for mortality and growth inhibition in comparison to untreated samples 5 days after infestation. The following compound gave an effect of at least 80% in at least one of the two categories (mortality or growth inhibition) at an application rate of 200 ppm: P1, P4, P5, P6, P8, P9, P10, P11, P12 and P13.

The subject of data set [4] is Spodoptera littoralis (Egyptian cotton leaf worm). Put plainly: Example B2: activity against Spodoptera littoralis, systemic via lettuce on agar. The format is in vivo. To be noted: 144 h, application rate of 12.5 ppm, Spodoptera eggs, 6 days after infestation, read-out: control in at least one of the three categories (mortality, anti-feedancy or growth inhibition). An excerpt: Example B2: Activity Against Spodoptera Littoralis (Egyptian Cotton Leaf Worm)
Test compounds were applied by pipette from 10,000 ppm DMSO stock solutions into 24-well plates and mixed with agar. Lettuce seeds were placed on the agar and the multi well plate was closed by another plate which contains also agar. After 7 days the roots have absorbed the compound and the lettuce has grown into the lid plate. The lettuce leafs were now cut off into the lid plate. Spodoptera eggs were pipetted through a plastic stencil on a humid gel blotting paper and the plate closed with it. The samples were assessed for mortality, anti-feedant effect and growth inhibition in comparison to untreated samples 6 days after infestation. The following compound gave an effect of at least 80% control in at least one of the three categories (mortality, anti-feedancy or growth inhibition) at an application rate of 12.5 ppm: P1, P4, P9, P12 and P13.

Data set [5] has as its system Diabrotica balteata (corn root worm). Put plainly: Example B4: activity against Diabrotica balteata, maize sprouts spray. The format is in vivo. The settings on record: 96 h, application rate of 200 ppm, L2 larvae, 4 days after infestation, read-out: effect in at least one of the two categories (mortality or growth inhibition). As for the experimental part:
Example B4: Activity Against Diabrotica balteata (Corn Root Worm)
Maize sprouts, placed on an agar layer in 24-well microtiter plates were treated with aqueous test solutions prepared from 10,000 ppm DMSO stock solutions by spraying. After drying, the plates were infested with L2 larvae (6 to 10 per well). The samples were assessed for mortality and growth inhibition in comparison to untreated samples 4 days after infestation. The following compounds gave an effect of at least 80% in at least one of the two categories (mortality or growth inhibition) at an application rate of 200 ppm: P1, P4, P5, P6, P8, P9, P10, P11, P12 and P13.

In data set [6] the test system is Bemisia tabaci (cotton white fly). Put plainly: Example B7: activity against Bemisia tabaci, cotton leaf disc spray. The format is in vivo. To be noted: foliar, 144 h, application rate of 200 ppm, cotton leaf discs, adult white flies, 6 days after incubation. The protocol:
Example B7: Activity Against Bemisia tabaci (Cotton White Fly)
Cotton leaf discs were placed on agar in 24-well microtiter plates and sprayed with aqueous test solutions prepared from 10,000 ppm DMSO stock solutions. After drying the leaf discs were infested with adult white flies. The samples were checked for mortality 6 days after incubation.

Data set [7] deals with Euschistus heros (neotropical brown stink bug). Put plainly: Example B8: activity against Euschistus heros, soybean leaf spray. To be noted: 120 h, application rate of 200 ppm, N-2 nymphs, 5 days after infestation. The format is in vivo. As for the experimental part: Example B8: Activity Against Euschistus heros (Neotropical Brown Stink Bug)
Soybean leaf on agar in 24-well microtiter plates were sprayed with aqueous test solutions prepared from 10,000 ppm DMSO stock solutions. After drying the leaf were infested with N-2 nymphs. The samples were assessed for mortality 5 days after infestation.

The subject of data set [8] is Spodoptera littoralis (Egyptian cotton leaf worm). Put plainly: Example B1: activity against Spodoptera littoralis, cotton leaf disc spray. The format is in vivo. The settings on record: foliar, 72 h, application rate of 200 ppm, cotton leaf discs, L1 larvae, 3 days after infestation, read-out: control in at least one of the three categories (mortality, anti-feedancy or growth inhibition). The protocol:
Example B1: Activity Against Spodoptera littoralis (Egyptian Cotton Leaf Worm)
Cotton leaf discs were placed on agar in 24-well microtiter plates and sprayed with aqueous test solutions prepared from 10,000 ppm DMSO stock solutions. After drying the leaf discs were infested with five L1 larvae. The samples were assessed for mortality, anti-feedant effect, and growth inhibition in comparison to untreated samples 3 days after infestation. Control of Spodoptera littoralis by a test sample is when at least one of mortality, anti-feedant effect, and growth inhibition is higher than the untreated sample. The following compound gave an effect of at least 80% control in at least one of the three categories (mortality, anti-feedancy or growth inhibition) at an application rate of 200 ppm: P1, P4, P5, P8, P9, P10, P12 and P13.

Data set [9] deals with Myzus persicae (green peach aphid). As to the kind of experiment: Example B9: activity against Myzus persicae, roots of pea seedlings in test solution. The settings on record: 144 h, test rate of 24 ppm, 6 days. The format is in vivo. The protocol: Example B9: Activity Against Myzus persicae (Green Peach Aphid)
Roots of pea seedlings infested with an aphid population of mixed ages were placed directly into aqueous test solutions prepared from 10,000 DMSO stock solutions. The samples were assessed for mortality 6 days after placing seedlings into test solutions.

The test system of data set [10] is Thrips tabaci (onion thrips). Put plainly: Example B11: activity against Thrips tabaci, sunflower leaf disc spray. The format is in vivo. The settings on record: foliar, 144 h, application rate of 200 ppm, sunflower leaf discs, mixed ages, 6 days after infestation. As for the experimental part:
Example B11: Activity Against Thrips tabaci (Onion Thrips)
Sunflower leaf discs were placed on agar in 24-well microtiter plates and sprayed with aqueous test solutions prepared from 10,000 ppm DMSO stock solutions. After drying the leaf discs were infested with a Thrips population of mixed ages. The samples were assessed for mortality 6 days after infestation.

As for `CCSc1cc(C2CCCC2)cnc1-c1nc2cc(C(F)(F)F)cnc2n1C` [Compound P2, 2-(5-cyclopentyl-3-ethylsulfanyl-2-pyridyl)-3-methyl-6-(trifluoromethyl) imidazo[4,5-b]pyridine], the melting point was in the range of 130 to 132 °C.
Regarding `CCSc1cc(C2CCCCC2)cnc1-c1nc2cc(C(F)(F)F)cnc2n1C` [Compound P3, 2-(5-cyclohexyl-3-ethylsulfanyl-2-pyridyl)-3-methyl-6-(trifluoromethyl) imidazo[4,5-b]pyridine], the melting point fell in the range of 148 to 150 °C.
As for `CCS(=O)(=O)c1cc(C2CC2)cnc1-c1nc2cc(C(F)(F)F)cnc2n1C` [Compound P4, 2-(5-cyclopropyl-3-ethylsulfonyl-2-pyridyl)-3-methyl-6-(trifluoromethyl) imidazo[4,5-b]pyridine], the mortality at 200 ppm in data set [1], in data set [2], in [6] and in data set [7] was no less than 80% throughout. Moreover, the percent effect (mortality or growth inhibition) at 200 ppm in data set [3] and in data set [5] was no less than 80% each time. Moreover, the control at 12.5 ppm in [4] is no less than 80%. In addition, in data set [8], the percent control (mortality, anti-feedancy or growth inhibition) at 200 ppm is no less than 80%.
Consider `CCS(=O)(=O)c1cc(C2CCCC2)cnc1-c1nc2cc(C(F)(F)F)cnc2n1C` [Compound P5], for which the mortality at 200 ppm in data set [1] and in [7] was no less than 80% throughout. Also, the percent effect (mortality or growth inhibition) at 200 ppm in [3] and in [5] was no less than 80% each time. Moreover, the percent control (mortality, anti-feedancy or growth inhibition) at 200 ppm in [8] is no less than 80%.
Consider `CCS(=O)(=O)c1cc(C2CCCCC2)cnc1-c1nc2cc(C(F)(F)F)cnc2n1C` [Compound P6], for which the mortality at 200 ppm in data set [1], in data set [6] and in [7] was no less than 80% in each case. Besides, the percent effect (mortality or growth inhibition) at 200 ppm in data set [3] and in [5] was no less than 80% in each case.
`CCSc1cc(C2CCC2)cnc1-c1nc2cc(C(F)(F)F)cnc2n1C` [Compound P7] had a melting point of 136 to 138 °C.
In the case of `CCS(=O)(=O)c1cc(C2CCC2)cnc1-c1nc2cc(C(F)(F)F)cnc2n1C` [Compound P8], the mortality at 200 ppm in data set [1], in [6] and in data set [7] was no less than 80% in each case. Further, the percent effect (mortality or growth inhibition) at 200 ppm in [3] and in [5] was no less than 80% throughout. Also, in data set [8], the percent control (mortality, anti-feedancy or growth inhibition) at 200 ppm was no less than 80%.
Regarding `CCS(=O)(=O)c1cc(C2(C#N)CCC2)cnc1-c1nc2cc(C(F)(F)F)cnc2n1C` [Compound P10], the mortality at 200 ppm in [1], in data set [6] and in [7] was no less than 80% each time. For the same molecule, the percent effect (mortality or growth inhibition) at 200 ppm in data set [3] and in data set [5] was no less than 80% in each case. Moreover, the percent control (mortality, anti-feedancy or growth inhibition) at 200 ppm in data set [8] was no less than 80%.
On to `CCS(=O)(=O)c1cc(C2(C(N)=O)CC2)cnc1-c1nc2cc(C(F)(F)F)cnc2n1C` [Compound P11, 1-[5-ethylsulfonyl-6-[3-methyl-6-(trifluoromethyl)imidazo[4,5-b]pyridin-2-yl]-3-pyridyl]cyclopropanecarboxamide], for which the mortality at 200 ppm in data set [1], in [2], in [6] and in data set [7] was no less than 80% each time. For the same molecule, the percent effect (mortality or growth inhibition) at 200 ppm in data set [3] and in data set [5] was no less than 80% in each case. In addition, the mortality at 24 ppm in data set [9] is no less than 80%.
For `CCS(=O)(=O)c1cc(C2(C(=O)O)CC2)cnc1-c1nc2cc(C(F)(F)F)cnc2n1C` [Compound P12, 1-[5-ethylsulfonyl-6-[3-methyl-6-(trifluoromethyl)imidazo[4,5-b]pyridin-2-yl]-3-pyridyl]cyclopropanecarboxylic acid], the mortality at 200 ppm in data set [1], in [6] and in [7] was no less than 80% throughout. Moreover, the percent effect (mortality or growth inhibition) at 200 ppm in data set [3] and in data set [5] was no less than 80% throughout. In addition, the control at 12.5 ppm in data set [4] was no less than 80%. The percent control (mortality, anti-feedancy or growth inhibition) at 200 ppm in data set [8] is no less than 80%.
With `CCS(=O)(=O)c1cc(C2(C#N)CC2)cnc1-c1nc2cc(SC(F)(F)F)cnc2n1C` [Compound P13, 1-[5-ethylsulfonyl-6-[3-methyl-6-(trifluoro-methylsulfanyl)imidazo[4,5-b]pyridin-2-yl]-3-pyridyl]cyclopropanecarbonitrile], the mortality at 200 ppm in [1], in [2], in [10], in [6] and in data set [7] was no less than 80% each time. Further, the percent effect (mortality or growth inhibition) at 200 ppm in data set [3] and in [5] was no less than 80% throughout. Moreover, the control at 12.5 ppm in [4] was no less than 80%. Further, the percent control (mortality, anti-feedancy or growth inhibition) at 200 ppm in [8] is no less than 80%.
Turning to `CCS(=O)(=O)c1ccc(C2CC2)nc1-c1nc2cc(C(F)(F)F)cnc2n1C` [Compound P14, 2-(6-cyclopropyl-3-ethylsulfonyl-2-pyridyl)-3-methyl-6-(trifluoromethyl)imidazo[4,5-b]pyridine], the melting point is 163 to 165 °C.
